Assay results as given in patent publication US12295919B2, “Methods of treatment and prevention using 4-deoxy-L-erythro-5-hexoseulose uronic acid” (MIE UNIVERSITY, priority 2022, dated 2025).

Experiments:
[1] = test system: Caco-2 cell monolayer; assay: Membrane permeability using Caco-2 cell monolayer; assay type: in vitro ADME, human
Description: When Caco-2 cells (human colon cancer-derived cell line) are cultured in a monolayer on a porous membrane filter, they differentiate into intestinal epithelium-like cells. Owing to the differentiation, they express brush borders and tight junctions similar to columnar epithelial cells of the small intestine, as well as metabolic enzymes and transporters present in the human small intestine. Therefore, the Caco-2 cell monolayer is widely used as a model to predict absorption from the intestinal tract.
Using the Caco-2 cell monolayer, the membrane permeability of DEH was confirmed.
Next, using the model apparatuses shown in FIGS. 2A-2B, the electrical resistance value (transepithelial electrical resistance (TEER) value) using an electrical resistance system (voltohmmeter) sold under the trademark MILLICELL™ ESR-2 (FIG. 2A) and permeability using Lucifer Yellow (FIG. 2B) were measured to confirm that a single layer film was formed. The single layer films, in which the TEER value was more than 300 Ω·cm2 and the permeability of Lucifer yellow was 0.3% to 2%, were used in the test.
Permeability (absorption) of substances, which were added to the apical (AP: apical, luminal) side, to the basolateral (BL) side, or permeability (excretion) of substances, which were added to the BL side, to the AP side was evaluated.
An ER value of less than 2 means absorption from the intestinal tract, and an ER value of 2 or more means excretion from the intestinal tract.

[2] = test system: blood-brain barrier in vitro reconstitution system model (RBT-24H); assay: BBB permeability using rat-type BBB kit (RBT-24H); assay type: in vitro ADME, Wistar rat
Description: Next, DEH permeability was evaluated using a commercially available BBB kit (blood-brain barrier in vitro reconstitution system model (RBT-24H: PharmaCo-Cell Company Ltd.)). This kit uses endothelial cells, pericytes and astrocytes of Wistar rat origin. The above-mentioned SIM measurement of LC/MS was used in the detection and quantification of DEH. A 1000 μg/mL DEH solution was added to the blood vessel side, and after 30 minutes, culture medium on the brain parenchyma side was collected. Then, the DEH concentration in the collected culture medium was measured.
A summary of data, which examined permeability subgroups that migrate into the brain for various compounds, are shown in Table 3.

[3] = test system: PC-12 cells; assay: Neurite outgrowth activity using PC-12 cells; assay type: cell-based, rat
Description: Next, the characteristics of DEH were investigated using PC-12 cells. PC-12 cells are cells that were isolated from rat adrenal medullary pheochromocytoma and established as a strain. Nerve growth factor (NGF) is not needed for survival of PC-12 cells, but proliferation is arrested, nerve fibers elongate, and sympathetic ganglion neuron-like properties develop by using NGF. Owing to these properties, PC-12 cells have been used as a model for neural differentiation.
PC-12 cells were cultured and divided into 8 subgroups: no addition (Control), DEH addition (10, 50, 100 μM), NGF addition, NGF addition+DEH addition (10, 50, 100 μM), and elongation of neurite formation was observed. ImageJ software was used to measure neurite length. FIGS. 5A-5C show photographs of cells observed under a microscope; in FIG. 6 the neurite length (μm) of each subgroup is shown. Each data is shown as mean±standard error of triplicate tests. Statistical analysis was performed using the t-test, and a significance level of less than 5% (p<0.05) was considered significant.
NGF addition+DEH addition (50, 60, 70, 80, 90, 100 μM) was divided into 6 subgroups, and the elongation and number of neurites were observed and are shown in FIGS. 7 and 8. Each data is shown as mean±standard error of triplicate tests.

[4] = test system: human iPS cell-derived intestinal epithelial cells; assay: Membrane permeability using human iPS cell-derived intestinal epithelial monolayer; assay type: in vitro ADME
Description: The permeability of DEH through membrane was confirmed using human iPS cells. […] Therefore, results closer to the human body can be obtained using iPS cell-derived intestinal epithelial cells as compared to those using the Caco-2 cell model test.
Using a CO2 incubator (37° C., 5% CO2), human iPS cell-derived intestinal epithelial cells were cultured for 13 to 20 days to prepare a monolayer.
The membrane permeability of the human iPS cell-derived intestinal epithelial monolayer membrane was evaluated by the method described above in <Test 1> using an electrical resistance system (voltohmmeter) sold under the trademark MILLICELL™ ESR-2. Monolayer films, in which the TEER value was more […], were used in the test.
Permeability (absorption) of substances, which were added to the AP side, to the BL side, or permeability (excretion) of substances, which were added to the BL side, to the AP side was evaluated. The above-mentioned SIM measurement of LC/MS was used in the detection and quantification of DEH.

[5] = test system: blood-brain barrier in vitro reconstitution system model (MBT-24H); assay: BBB permeability using cynomolgus monkey-type BBB kit (MBT-24H); assay type: in vitro ADME
Description: The permeability of DEH was evaluated using a commercially available BBB kit (blood-brain barrier in vitro reconstitution system model (MBT-24H: PharmaCo-Cell Company, Ltd.)). The kit uses cynomolgus monkey-derived cells as endothelial cells. The permeability of DEH was evaluated using this model.
The reconstituted cynomolgus monkey BBB model has a structure closer to that of human BBB as compared to that of the kit in <Test 2>, so it was considered to be a better model for evaluating whether DEH permeates the human BBB.
After the test, the DEH concentration on the brain parenchyma side was obtained, and the DEH permeability was calculated.

[6] = test system: C. elegans strain HA759; assay: Inhibitory effect on neuronal death in PolyQ disease model; assay type: in vivo; conditions: 120 hours after start of culturing
Text: The effect of DEH on neuronal death of the C. elegans strain HA759, which is a PolyQ disease model, was also investigated. HA759 strain (rtIs11 [osm-10p:: GFP+osm−10p: HtnQ150+dpy−20 (+)]) is a C. elegans strain which expresses Htn-Q150 (human huntingtin) and the fluorescent protein GFP downstream of the osm-10 gene when it receives a signal from ASH neurons. In accordance with the duration of the culture time, HA759 causes death of ASH neurons due to progressive neurodegeneration owing to accumulation of PolyQ.
Age-synchronized HA759 strain was cultured using mNGM medium. Control (DEH−), 25 mM DEH and 50 mM DEH were used as evaluation groups (samples). E. coli OP50-1 was used as nematode food.
Ten nematodes each were observed under a microscope immediately after the start of culture of the HA759 strain and after 24, 48, 72, and 120 hours to confirm whether nerve cells were alive or dead (n=30).
Each data is shown as mean±standard error. […] Thus, DEH inhibited, in a dose-dependent manner, PolyQ-induced neuronal death in the HA759 strain. Because DEH suppresses (reduces) PolyQ aggregation and neuronal cell death, DEH can treat and/or prevent symptoms of PolyQ disease, such as involuntary movement and dementia.

[7] = test system: DAF-16; assay: Expression and activation (nuclear localization) of DAF-16; assay type: in vivo, C. elegans; conditions: 72 hours at 20° C.; for nuclear localization rate of DAF-16: TJ356 strain (Control 2.2%); for intermediate localization rate of DAF-16: TJ356 strain (Control 24.4%)
Text: The FOXO gene daf-16 is one of the components of the insulin/IGF-1 signaling pathway that controls many biological processes such as lifespan, metabolism, and stress response. When DAF-16 is localized in the nucleus, it activates the transcription of numerous genes involved in the regulation of stress tolerance promotion and pathogen protection. Therefore, the involvement of DEH in the activation of daf-16 was examined using the C. elegans TJ356 strain.
The TJ356 strain (zls356 [daf-16p::daf-16a/b::GFP+rol-6 (su1006)]) is a nematode, in which a fluorescent protein GFP has been inserted into the daf-16 promoter, and nuclear translocation by daf-16 gene activation can be observed by fluorescence of the GFP.
Age-synchronized TJ356 strain was cultured using mNGM medium at 20° C. for 72 hours. As evaluation groups (samples), positive control (group heat-treated at 37° C. for 30 minutes after 72-hour culture), control (DEH−), 25 mM DEH and 50 mM DEH were used. E. coli OP50-1 was used as nematode food.
After culturing the TJ356 strain, 15 nematodes in each group were observed under a microscope to confirm the presence or absence of nuclear localization of the DAF-16 protein (GFP fluorescence) (n=60).
Each data is shown as mean±standard error. […] Thus, DEH increased the nuclear localization ratio of DAF-16 as compared to the Control.

[8] = human iPS cell-derived intestinal epithelial monolayer, mean ± s.e.
[9] = cynomolgus monkey BBB kit, mean ± s.e.

For O=C[C@@H](O)[C@@H](O)CC(=O)C(=O)O [DEH, 4-deoxy-L-erythro-5-hexoseulose uronic acid], the Absorption category ([1]; Caco-2 Papp compared with Table 2) was “moderate”, the “Papp AP to BL” value ([1]; Caco-2 monolayer, absorption direction, mean ± s.e.) was 5.13 ± 0.22 ×10^−6 cm/s and the “Papp BL to AP” value ([1]; Caco-2 monolayer, excretion direction, mean ± s.e.) was 2.78 ± 0.12 ×10^−6 cm/s. The “ER (B→A/A→B)” value ([1]; Caco-2 monolayer, ER less than 2 means absorption from the intestinal tract) was 0.542, the “Papp (DEH permeability, blood vessel side to brain parenchyma side)” value ([2]; 1000 μg/mL DEH, 30 minutes) was 14.62±6.86 ×10^−6 cm/s and the Permeability category ([2]; Papp compared with Table 3) was “good (10~20)”. For the same compound, the “neurite outgrowth, DEH alone” value ([3]; DEH 10, 50, 100 μM without NGF) was “did not induce neurite outgrowth”, the “optimum concentration (maximum neurite elongation and number)” value ([3]; NGF + DEH 50-100 μM) was 70 µM and the “promotion of the function of NGF (neurite length)” value ([3]; NGF addition + DEH addition, p<0.05 vs NGF) was “significantly (p<0.05) promote the function of NGF”. For the same compound, the “Efflux ratio (ER) (B-A/A-B)” value ([4]; human iPS cell-derived intestinal epithelial monolayer) was 0.907, the “Papp AP to BL” value [4, 8] was 8.78 ± 1.49 ×10^−6 cm/s and the “Papp BL to AP” value [4, 8] was 7.97 ± 1.26 ×10^−6 cm/s. For the same compound, the Absorption category ([4]; iPS-derived monolayer Papp compared with Table 2) was “moderate”, the “Efflux ratio (ER) (B-A/A-B)” value ([5]; cynomolgus monkey BBB kit) was 0.766 and the “Papp Blood side (A) to Brain side (B)” value [5, 9] was 2.88 ± 0.24 ×10^−6 cm/s. For the same compound, the “Papp Brain side (B) to Blood side (A)” value [5, 9] was 2.20 ± 0.55 ×10^−6 cm/s, the Permeability category ([5]; monkey BBB kit, Papp compared with Table 3) was “low (2~10)” and the “neuronal death suppressed (decreased) as compared to the Control” value ([6]; 25 mM DEH) was 20.3%. For the same compound, the “neuronal death suppressed (decreased) as compared to the Control” value ([6]; 50 mM DEH) was 46.4%, the “nuclear localization rate of DAF-16” value ([7]; 25 mM DEH) was 40.0% and the “intermediate localization rate of DAF-16” value ([7]; 25 mM DEH) was 35.6%. For the same compound, the “nuclear localization rate of DAF-16” value ([7]; 50 mM DEH) was 51.1% and the “intermediate localization rate of DAF-16” value ([7]; 50 mM DEH) was 31.1%.
